# Reference: US8609644B2, “Amino derivatives of androstanes and androstenes as medicaments for cardiovascular disorders” (priority 2006, dated 2013)
# Where a name gives a salt, the structure may show the parent alone. Read-outs that look alike come from different tables or passages of the source.
# Key:
# fresh rat hepatocytes = assay: Metabolism in fresh rat hepatocytes; details: for % of compound metabolized after 60 minutes: fresh rat hepatocytes, test item nominal concentration 45 μM
# Na+, K+-ATPase = Na+, K+-ATPase (Canis lupus familiaris, UniProt P50997); assay: biochemical; set-up: species or system dog
# anesthetized guinea-pig = assay: Inotropic effect and lethal dose, slow intravenous infusion (over 90 minutes) in anesthetized guinea-pig; details: for ED80 / ED (max) / Emax: Cavia porcellus, iv, 1.5 h; for ED80: read-out: ED80 (inotropic potency, dose increasing +dP/dTmax by 80%); for ED (max): read-out: EDmax (dose inducing maximum positive inotropic effect); for Emax: read-out: Emax % increase in +dP/dTmax; for Lethal dose/ED80 (safety ratio): calculated in the died animals; for Maximum dose infused: maximum dose infused in the survived animals; for Dead/treated / Emax % increase in +dP/dTmax / ED80 (inotropic potency, dose increasing +dP/dTmax by 80%) / EDmax (dose inducing maximum positive inotropic effect): slow i.v. infusion over 90 minutes; for % decrease from Emax after 20 min from the end of the infusion: duration of the inotropic effect; for Emax % increase in +dP/dTmax: maximum increase in contractile force
# [1] = dog kidney enzyme, read-out: Na+, K+-ATPase Inhibition IC50
# [2] = read-out: Na+, K+-ATPase Inhibition IC50
compound,measurement,setting,value
"CO/N=C1\C[C@H]2[C@@H]3CCC(=O)[C@@]3(C)CC[C@@H]2[C@@]2(C)CCC(=NOCCN)C[C@]12O (mixture of isomers) [I-bp, (E,Z)-3-(2-Aminoethoxyimino)-5α-hydroxy-6-(E)-methoxyiminoandrostane-17-one fumarate]",% of compound metabolized after 60 minutes,fresh rat hepatocytes,32%
same,IC50,"Na+, K+-ATPase; Na+, K+-ATPase Inhibition IC50",40 nM
"CC12CCC3C(C(=NO)CC4CC(=NOCCN)CCC43C)C1CCC2=O (mixture of isomers) [I-bs, (E,Z)-3-(2-Aminoethoxyimino)-7-(E)-hydroxyiminoandrostane-17-one fumarate]",% of compound metabolized after 60 minutes,fresh rat hepatocytes,15%
"CNCCCON=C1CC[C@@]2(C)[C@H](C1)[C@@H](CO)C[C@@H]1[C@@H]2CC[C@]2(C)C(=O)CC[C@@H]12 (mixture of isomers) [I-cl, (E,Z) 3-(3-N-Methylaminopropoxyimino)-6α-hydroxymethylandrostan-17-one hydrochloride]",IC50,"Na+, K+-ATPase; [1]",690 nM
same,ED80,anesthetized guinea-pig,1.54 µmol/kg
same,ED (max),anesthetized guinea-pig,8.95 µmol/kg
same,Emax,anesthetized guinea-pig,263%
same,Lethal dose/ED80 (safety ratio),anesthetized guinea-pig,27.6
same,Maximum dose infused,anesthetized guinea-pig,42.5 µmol/kg
same,Dead/treated,anesthetized guinea-pig,2/2
"C[C@]12CCC(=NOCCN)CC1C(=O)C[C@@H]1[C@@H]2CC[C@]2(C)C(=O)CC[C@@H]12.Cl (mixture of isomers) [compd 22b, (EZ) 3-(2-aminoethoxyimino)androstane-6,17-dione hydrochloride, reference compound]",% of compound metabolized after 60 minutes,fresh rat hepatocytes,95%
same,metabolism in fresh rat hepatocytes (in words),fresh rat hepatocytes; within 60 minutes,almost completely metabolized
same,ED80,anesthetized guinea-pig,1.82 µmol/kg
same,ED (max),anesthetized guinea-pig,5.74 µmol/kg
same,Emax,anesthetized guinea-pig,182%
same,Lethal dose/ED80 (safety ratio),anesthetized guinea-pig,22.6
same,% decrease from Emax after 20 min from the end of the infusion,anesthetized guinea-pig,100%
same,Maximum dose infused,anesthetized guinea-pig,32.1 µmol/kg
same,Dead/treated,anesthetized guinea-pig,7/8
"CNCCCON=C1CC[C@@]2(C)C(C1)C(=NOC)C[C@@H]1[C@@H]2CC[C@]2(C)C(=O)CC[C@@H]12.Cl (stereo partly drawn) [I-ci, (E,Z) 3-(3-N-Methylaminopropoxyimino)-6-(E)-methoxyiminoandrostan-17-one hydrochloride]",% of compound metabolized after 60 minutes,fresh rat hepatocytes,41%
same,IC50,"Na+, K+-ATPase; [2]",330 nM
"CC12CCC3C(CC(CCO)C4CC(=NOCCN)CCC43C)C1CCC2=O (mixture of isomers) [I-am, (E,Z) 3-(2-Aminoethoxyimino)-6α-(2-hydroxyethyl)androstan-17-one hydrochloride]",IC50,"Na+, K+-ATPase; [1]",320 nM
same,ED80,anesthetized guinea-pig,2.5 µmol/kg
same,ED (max),anesthetized guinea-pig,17.2 µmol/kg
same,Emax,anesthetized guinea-pig,238%
same,Lethal dose/ED80 (safety ratio),anesthetized guinea-pig,22.7
same,% decrease from Emax after 20 min from the end of the infusion,anesthetized guinea-pig,17%
same,Maximum dose infused,anesthetized guinea-pig,50.5 µmol/kg
same,Dead/treated,anesthetized guinea-pig,2/3
"CC12CCC3C(CC(CO)C4CC(=NOCCN)CCC43C)C1CCC2=O (single isomer, unassigned) [I-ao, (E,Z) 3-(2-Aminoethoxyimino)-6α-hydroxymethylandrostan-17-one hydrochloride]",IC50,"Na+, K+-ATPase; [1]",180 nM
same,ED80,anesthetized guinea-pig,1.8 µmol/kg
same,ED (max),anesthetized guinea-pig,7.37 µmol/kg
same,Emax,anesthetized guinea-pig,166%
same,% decrease from Emax after 20 min from the end of the infusion,anesthetized guinea-pig,100%
same,Maximum dose infused,anesthetized guinea-pig,12.6 µmol/kg
same,Dead/treated,anesthetized guinea-pig,0/3
"C[C@]12CC[C@H]3[C@@H](C/C(=N\O)[C@@]4(O)CC(=NOCCN)CC[C@]34C)[C@@H]1CCC2=O.O=C(O)/C=C/C(=O)O [I-bo, (E,Z)-3-(2-Aminoethoxyimino)-5α-hydroxy-6-(E)-hydroxyiminoandrostane-17-one fumarate]",IC50,"Na+, K+-ATPase; [2]",79 nM
same,% decrease from Emax after 20 min from the end of the infusion,anesthetized guinea-pig,82%
same,Maximum dose infused,anesthetized guinea-pig,12.5 µmol/kg
same,Emax % increase in +dP/dTmax,anesthetized guinea-pig,214%
same,Dead/treated,anesthetized guinea-pig,0/3
same,"ED80 (inotropic potency, dose increasing +dP/dTmax by 80%)",anesthetized guinea-pig,1.30 µmol/kg
same,EDmax (dose inducing maximum positive inotropic effect),anesthetized guinea-pig,4.86 µmol/kg
"C[C@]12CC[C@H]3[C@@H](CC[C@@]4(O)CC(=NOCCN)CC[C@]34C)[C@@H]1CCC2=O (mixture of isomers) [I-ad, (E,Z) 3-(2-Aminoethoxyimino)-5α-hydroxyandrostan-17-one fumarate]",IC50,"Na+, K+-ATPase; Na+, K+-ATPase Inhibition IC50",540 nM
same,ED80,anesthetized guinea-pig,5.14 µmol/kg
same,ED (max),anesthetized guinea-pig,22.5 µmol/kg
same,Emax,anesthetized guinea-pig,202%
same,% decrease from Emax after 20 min from the end of the infusion,anesthetized guinea-pig,100%
same,Maximum dose infused,anesthetized guinea-pig,50.1 µmol/kg
same,Dead/treated,anesthetized guinea-pig,0/3
"C[C@]12CCC(=NOCCN)CC1[C@@H](NC=O)C[C@@H]1[C@@H]2CC[C@]2(C)C(=O)CC[C@@H]12.O=C(O)/C=C/C(=O)O (stereo partly drawn) [I-be, (E,Z) 3-(2-Aminoethoxyimino)-6α-formamidoandrostan-17-one fumarate]",% of compound metabolized after 60 minutes,fresh rat hepatocytes,16%
same,IC50,"Na+, K+-ATPase; [2]",160 nM
same,Lethal dose/ED80 (safety ratio),anesthetized guinea-pig,32.8
same,% decrease from Emax after 20 min from the end of the infusion,anesthetized guinea-pig,37%
same,Maximum dose infused,anesthetized guinea-pig,50.4 µmol/kg
same,Emax % increase in +dP/dTmax,anesthetized guinea-pig,174%
same,Dead/treated,anesthetized guinea-pig,1/5
same,"ED80 (inotropic potency, dose increasing +dP/dTmax by 80%)",anesthetized guinea-pig,1.99 µmol/kg
same,EDmax (dose inducing maximum positive inotropic effect),anesthetized guinea-pig,27.4 µmol/kg
"C=C1C[C@@H]2[C@H](CC[C@]3(C)C(=O)CC[C@@H]23)[C@@]2(C)CC/C(=N\OCCN)CC12.Cl (stereo partly drawn) [I-ai, (E) 3-(2-Aminoethoxyimino)-6-methyleneandrostan-17-one hydrochloride]",% of compound metabolized after 60 minutes,fresh rat hepatocytes,27%
same,IC50,"Na+, K+-ATPase; Na+, K+-ATPase Inhibition IC50",84 nM
same,ED80,anesthetized guinea-pig,1.2 µmol/kg
same,ED (max),anesthetized guinea-pig,2.99 µmol/kg
same,Emax,anesthetized guinea-pig,235%
same,% decrease from Emax after 20 min from the end of the infusion,anesthetized guinea-pig,100%
same,Maximum dose infused,anesthetized guinea-pig,3.2 µmol/kg
same,Dead/treated,anesthetized guinea-pig,0/5
"C#C[C@H]1C[C@@H]2[C@H](CC[C@]3(C)C(=O)CC[C@@H]23)[C@@]2(C)CCC(=NOCCN)C[C@H]12 (mixture of isomers) [I-bd, (E,Z) 3-(2-Aminoethoxyimino)-6α-ethynylandrostan-17-one hydrochloride]",IC50,"Na+, K+-ATPase; Na+, K+-ATPase Inhibition IC50",200 nM
same,ED80,anesthetized guinea-pig,4.59 µmol/kg
same,ED (max),anesthetized guinea-pig,9.89 µmol/kg
same,Emax,anesthetized guinea-pig,163%
same,% decrease from Emax after 20 min from the end of the infusion,anesthetized guinea-pig,16%
same,Maximum dose infused,anesthetized guinea-pig,12.8 µmol/kg
same,Dead/treated,anesthetized guinea-pig,0/3
"CC12CCC3C(C(=O)CC4CC(=NOCCN)CCC43C)C1CCC2=O (mixture of isomers) [I-br, (E,Z) 3-(2-Aminoethoxyimino)androstane-7,17-dione fumarate]",IC50,"Na+, K+-ATPase; Na+, K+-ATPase Inhibition IC50",210 nM
same,ED80,anesthetized guinea-pig,1.62 µmol/kg
same,ED (max),anesthetized guinea-pig,13.5 µmol/kg
same,Emax,anesthetized guinea-pig,264%
same,Lethal dose/ED80 (safety ratio),anesthetized guinea-pig,32.4
same,% decrease from Emax after 20 min from the end of the infusion,anesthetized guinea-pig,100%
same,Maximum dose infused,anesthetized guinea-pig,50.4 µmol/kg
same,Dead/treated,anesthetized guinea-pig,2/5
"C[C@]12CC[C@H](OC(=O)CCN)CC1/C(=N/O)C[C@@H]1[C@@H]2CC[C@]2(C)C(=O)CC[C@@H]12.Cl (stereo partly drawn) [I-dm, 3β-(3-Aminopropionyloxy)-6-(E)-hydroxyiminoandrostan-17-one hydrochloride]",% of compound metabolized after 60 minutes,fresh rat hepatocytes,71%
"C[C@]12CC[C@@H](/C=C\CCCN)CC1/C(=N/O)C[C@@H]1[C@@H]2CC[C@]2(C)C(=O)CC[C@@H]12.O=C(O)/C=C/C(=O)O (stereo partly drawn) [I-dg, 3α-(5-Aminopent-1-(Z)-enyl)-6-(E)-hydroxyiminoandrostan-17-one fumarate]",IC50,"Na+, K+-ATPase; [2]",390 nM
same,% decrease from Emax after 20 min from the end of the infusion,anesthetized guinea-pig,29%
same,Maximum dose infused,anesthetized guinea-pig,12.9 µmol/kg
same,Emax % increase in +dP/dTmax,anesthetized guinea-pig,105%
same,Dead/treated,anesthetized guinea-pig,0/3
same,"ED80 (inotropic potency, dose increasing +dP/dTmax by 80%)",anesthetized guinea-pig,8.62 µmol/kg
same,EDmax (dose inducing maximum positive inotropic effect),anesthetized guinea-pig,11.4 µmol/kg
"C[C@]12CC[C@H]3[C@@H](CC[C@@]4(O)C[C@H](/C=C\CCCN)CC[C@]34C)[C@@H]1CCC2=O [I-dk, 3α-(5-Aminopent-1-(Z)-enyl)-5α-hydroxyandrostane-17-one fumarate]",% of compound metabolized after 60 minutes,fresh rat hepatocytes,12%
same,IC50,"Na+, K+-ATPase; [1]",690 nM
"CC12CCC3C(C(O)C(CO)C4CC(=NOCCN)CCC43C)C1CCC2=O (mixture of isomers) [I-ej, (E,Z) 3-(2-Aminoethoxyimino)-6α-hydroxymethyl-7α-hydroxyandrostane-17-one hydrochloride]",% of compound metabolized after 60 minutes,fresh rat hepatocytes,5%
same,IC50,"Na+, K+-ATPase; [1]",22 nM
same,ED80,anesthetized guinea-pig,0.34 µmol/kg
same,ED (max),anesthetized guinea-pig,7.55 µmol/kg
same,Emax,anesthetized guinea-pig,258%
same,Lethal dose/ED80 (safety ratio),anesthetized guinea-pig,50
same,Maximum dose infused,anesthetized guinea-pig,25.0 µmol/kg
same,Dead/treated,anesthetized guinea-pig,3/3
"CNCCCON=C1CCC2(C)C(C1)C(NC=O)CC1C3CCC(=O)C3(C)CCC12 (mixture of isomers) [I-co, (E,Z) 3-(3-N-Methylaminopropoxyimino)-6α-formamidoandrostan-17-one hydrochloride]",IC50,"Na+, K+-ATPase; [1]",1100 nM
same,ED80,anesthetized guinea-pig,0.93 µmol/kg
same,ED (max),anesthetized guinea-pig,2.79 µmol/kg
same,Emax,anesthetized guinea-pig,177%
same,Lethal dose/ED80 (safety ratio),anesthetized guinea-pig,47.4
same,Maximum dose infused,anesthetized guinea-pig,44.1 µmol/kg
same,Dead/treated,anesthetized guinea-pig,2/2
"CC1CC2C3CCC(=O)C3(C)CCC2C2(C)CCC(=NOCCN)CC12 (single isomer, unassigned) [I-ba, (E,Z) 3-(2-Aminoethoxyimino)-6α-methylandrostan-17-one hydrochloride]",IC50,"Na+, K+-ATPase; Na+, K+-ATPase Inhibition IC50",300 nM
same,ED80,anesthetized guinea-pig,3.09 µmol/kg
same,ED (max),anesthetized guinea-pig,5.78 µmol/kg
same,Emax,anesthetized guinea-pig,203%
same,% decrease from Emax after 20 min from the end of the infusion,anesthetized guinea-pig,100%
same,Maximum dose infused,anesthetized guinea-pig,6.3 µmol/kg
same,Dead/treated,anesthetized guinea-pig,0/3
